# Measurements published in patent US12433870B2, “Supramolecular photoprotection of a photosensitizer” (Northwestern University, priority 2019, dated 2025).
# Key:
# [1] = Solubility in water / PBS buffer; type: physicochemical; conditions: H2O
# [2] = pH-dependent release of DPP from the complex (fluorescence and transient absorption, pH 4.5); type: physicochemical
# Description: At low pH, DPP can be protonated. Therefore, the electrostatic repulsion between the cationic DPP and the tetracationic host ExBox^4+ can trigger release of DPP in H2O. Indeed, when aqueanous solution of ExBox^4+⊃DPP is acidified with HCl (pH 4.5), protonated DPP was released in H2O leading to 17-fold increment of fluorescence signals (FIG. 4A). […] The residual population survived for several microseconds and has a transient absorption spectrum of ^3*DPP; the […] (FIGS. 4D-4E) approximates the decay of the long-lived triplet state in aerated, room temperature aqueous solution. […] We estimate this fraction to be approximately 30% at the ˜20 μM concentration of the transient absorption experiments.
# The setup for transient absorption measurements has been described elsewhere.^3 Photoexcitation pulses at 414 nm were obtained through a beta barium borate (BBO) crystal doubling the fundamental, and the 575 nm pulses were generated with a laboratory-constructed optical parametric amplifier. The pulse power for photoexcitation was attenuated to ˜1 μJ/pulse, using neutral density filters. The pump polarization was randomized employing a commercial depolarizer (DPU-25-A, Thorlabs, Inc.) to eliminate any orientational dynamics contributions from the experiment. […]
# A2780 cells [3] = test: MTT assay, in vitro cytotoxicity in the dark; type: cell-based, human; conditions: 0.625-100 μM in PBS
# Protocol: (§1) A2780 cells (human ovarian cancer cell line) and MCF-7 cells (human breast adenocarcinoma cell line) obtained from Sigma-Aldrich and American Type Culture Collection (ATCC, Rockville, MD, USA), respectively were utilized for cell culture experiments. These cells were cultured in Dulbecco's Modified Eagle's Medium (DMEM) supplemented with 10% fetal bovine serum (FBS), penicillin (100 IU/mL) and streptomycin (100 μg/mL) at 37° C. in the presence of air (95%) and CO2 (5%).
# (§2) A2780 or MCF-7 cells (2×10^5 cells/mL, 100 μL) were seeded in each well of a black 96-well plate. Stock solution of ExBox^4+⊃DPP in PBS (1 mM, 10 μL) was added to each well to achieve working concentrations and incubated for 12 h. […] Following irradiation, cells were incubated overnight and then added with MTT (5 mg/mL in PBS, 10 μL). After 4 h incubation with MTT, media from each well was pipetted out, formazan crystals deposited on the plate were dissolved in 200 μL of Me2SO, and the absorbance of each well was measured using a microplate reader at 560 nm. All the samples were analyzed in quadruplicates.
# (§3) The percentage cell viability was calculated using the following formula: % cell viability=(OD of treated sample/OD of untreated sample)*100.
# MCF-7 cells = test: MTT assay, in vitro cytotoxicity in the dark; type: cell-based, human; conditions: 0.625-100 μM in PBS
# Protocol: as §1, §2, §3
# A2780 cells [4] = test: Cellular uptake studies by flow cytometry (MFI); type: cell-based, human; conditions: 10 μM, 30 min to 12 h
# Protocol: A2780 cells (5×10^5 cells/mL, 200 μL) were seeded in each well of a 48-well plate and treated with 10 μM PBS solution of ExBox^4+⊃DPP for 30 min, 1 h, 2 h, 6 h, and 12 h. Cells were washed with PBS, trypsinized, and incubated with 50 μL of 1:100 Zombie Aqua fixable cell viability dye for 15 min at 4° C. After incubation, cells were washed with 600 μL PBS, spun at 400 ref for 5 min, and the supernatant was discarded. Cells were then suspended in 100 μL of 2% paraformaldehyde prior to being analyzed using a BD Fortessa flow cytometer. Cells were first gated for singlet events using FSC-A vs. FSC-H, after which debris was excluded used FSC-A vs. SSC-A. Cells gated as Zombie Aqua low were considered live cells, which were then analyzed for their median fluorescence intensity (MFI) in the PE-Cy5 channel for ExBox^4+⊃DPP fluorescence, representing the amount of ExBox^4+⊃DPP taken up by each cell.
# A2780 cells [5] = test: Intracellular ROS generation (DCFDA assay); type: cell-based, human; conditions: 10 μM/0.156 J cm^−2 light dose, compared with dark or untreated cells
# Protocol: Intracellular ROS generation assay was performed using DCFDA Cellular ROS Detection Assay Kit (Abeam), according to the manufacturer's instructions. Briefly, A2780 cells (2.5×10^5 cells/mL, 100 μL) were seeded in each well of a black 96-well plate and incubated with PBS solution of ExBox^4+⊃DPP for 12 h. After incubation, cells were washed with PBS and incubated with 2′,7′-dichlorofluorescin diacetate (DCFDA) (20 μM) for 45 min in the dark. Then the cells were rinsed with PBS, irradiated and fluorescence was measured (λex=485 and λem=535 nm) using a microplate reader. Control experiments with PBS solution of ExBox^4+⊃DPP treated cells and untreated cells, both with and without irradiation were performed.
smiles,measurement,setting,value
C1=Cc2nc1cc1ccc([nH]1)c(-c1ccccc1)c1nc(cc3ccc([nH]3)c2-c2ccccc2)C=C1.c1cc2ccc1C[n+]1ccc(cc1)-c1ccc(cc1)-c1cc[n+](cc1)Cc1ccc(cc1)C[n+]1ccc(cc1)-c1ccc(cc1)-c1cc[n+](cc1)C2 [ExBox^4+⊃DPP],solubility in H2O,[1],soluble in H2O
same,increment of fluorescence signals on release of protonated DPP,"[2]; aqueous solution acidified with HCl (pH 4.5) versus pH 7, λex=414 nm",17 fold
same,fraction of the complex population with DPP released (electron transfer turned off),"[2]; pH 4.5, ~20 μM, transient absorption",approximately 30%
same,cell viability in the dark,A2780 cells [3],> 95%
same,cell viability in the dark,MCF-7 cells,> 95%
same,uptake and DPP fluorescence signal (MFI),A2780 cells [4],time-dependent increase
same,increase in intracellular ROS,A2780 cells [5],20 fold
